Source: ChEMBL document CHEMBL1201862, “PubChem BioAssay data set” (2004)
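Five compound concentrations were applied to cells in 96-well plates for 48 hours; endpoints were derived by simple linear interpolation of the resulting dose-response curve. Abbreviation: GI50, concentration required for 50% inhibition of growth.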 Activity calls are given as the source filed them. Cut-off read from the data, not from the text of the source: active = GI50 up to about 1.1 µM and inactive = higher.

Key:
Test in all cases: NCI anticancer screen, dose series, 48 h
[1] = test system: SW-620
[2] = test system: CAKI-1
[3] = test system: MCF7
[4] = test system: SNB-19
[5] = test system: OVCAR-8
[6] = test system: SF-295
[7] = test system: SNB-75
[8] = test system: OVCAR-3
[9] = test system: SF-268
[10] = test system: T47D
[11] = test system: K562
[12] = test system: BT-549
[13] = test system: KM12
[14] = test system: Hs-578T
[15] = test system: NCI-H226
[16] = test system: HCT-116
[17] = test system: MDA-MB-231
[18] = test system: TK-10
[19] = test system: SK-MEL-2
[20] = test system: HL-60

Compound | GI50 [1] | GI50 [2] | GI50 [3] | GI50 [4] | GI50 [5] | GI50 [6] | GI50 [7] | GI50 [8] | GI50 [9] | GI50 [10] | GI50 [11] | GI50 [12] | GI50 [13] | GI50 [14] | GI50 [15] | GI50 [16] | GI50 [17] | GI50 [18] | GI50 [19] | GI50 [20]
ON(CCc1ccncc1)Cc1ccccc1 | > 100 µM (inactive) | > 100 µM (inactive) | > 100 µM (inactive) | > 100 µM (inactive) | > 100 µM (inactive) | > 100 µM (inactive) | > 100 µM (inactive) | > 100 µM (inactive) | > 100 µM (inactive) | > 100 µM (inactive) | > 100 µM (inactive) | > 100 µM (inactive) | > 100 µM (inactive) | > 100 µM (inactive) | > 100 µM (inactive) | > 100 µM (inactive) |  |  |  | 
N#C[C@H](C(=O)c1ccccc1F)c1nc2ccccc2s1 | 32.3 µM (inactive) | 32.5 µM (inactive) |  | 27.5 µM (inactive) | 25.1 µM (inactive) | 16.1 µM (inactive) | 14.8 µM (inactive) | 18.5 µM (inactive) | 26.9 µM (inactive) | 34.8 µM (inactive) | 27.3 µM (inactive) | 46.6 µM (inactive) | 11 µM (inactive) | 15.1 µM (inactive) | 21.9 µM (inactive) | 23.5 µM (inactive) | 35.8 µM (inactive) | > 100 µM (inactive) | 16.6 µM (inactive) | 31.3 µM (inactive)
COc1ccc(NC(=O)C2=C(SC)C(=O)N=C2N)cc1 | > 100 µM (inactive) | > 100 µM (inactive) |  | > 100 µM (inactive) | > 100 µM (inactive) | > 100 µM (inactive) | > 100 µM (inactive) |  | > 100 µM (inactive) | > 100 µM (inactive) | > 100 µM (inactive) | > 100 µM (inactive) | > 100 µM (inactive) | > 100 µM (inactive) | > 100 µM (inactive) | > 100 µM (inactive) | > 100 µM (inactive) | > 100 µM (inactive) | 82 µM (inactive) | > 100 µM (inactive)
O=C(O)C1Cc2c([nH]c3ccccc23)C(CCCCO)N1 (configuration not stated) | > 100 µM (inactive) | > 100 µM (inactive) | > 100 µM (inactive) | > 100 µM (inactive) | > 100 µM (inactive) | > 100 µM (inactive) |  | > 100 µM (inactive) | > 100 µM (inactive) | > 100 µM (inactive) | > 100 µM (inactive) | > 100 µM (inactive) | > 100 µM (inactive) | > 100 µM (inactive) | > 100 µM (inactive) | > 100 µM (inactive) | > 100 µM (inactive) | > 100 µM (inactive) | > 100 µM (inactive) | > 100 µM (inactive)
COc1ccc2c(c1)CCc1[nH]c3ccccc3c1CCCC2 | > 10 µM (inactive) | > 10 µM (inactive) | > 10 µM (inactive) | > 10 µM (inactive) | > 10 µM (inactive) | > 10 µM (inactive) | > 10 µM (inactive) | > 10 µM (inactive) | > 10 µM (inactive) | > 10 µM (inactive) | > 10 µM (inactive) | > 10 µM (inactive) | > 10 µM (inactive) | > 10 µM (inactive) |  | > 10 µM (inactive) | > 10 µM (inactive) | > 10 µM (inactive) |  | > 10 µM (inactive)
COc1ccccc1CNC(=O)[C@H](Cc1ccc(O)cn1)NC(C)=O | > 100 µM (inactive) | > 100 µM (inactive) | > 100 µM (inactive) | > 100 µM (inactive) |  | > 100 µM (inactive) |  | > 100 µM (inactive) | > 100 µM (inactive) | > 100 µM (inactive) | > 100 µM (inactive) | > 100 µM (inactive) | > 100 µM (inactive) | > 100 µM (inactive) | > 100 µM (inactive) | > 100 µM (inactive) |  | > 100 µM (inactive) | > 100 µM (inactive) | > 100 µM (inactive)
COC(=O)Cc1c(-c2c(CC(=O)OC)c3ccccc3n2C2OC(COC3OC(COC(C)=O)C(OC(C)=O)C(OC(C)=O)C3OC(C)=O)C(O)C(O)C2O)[nH]c2ccccc12 (configuration not stated) | > 100 µM (inactive) | > 100 µM (inactive) | > 100 µM (inactive) | 22.8 µM (inactive) |  | 36.6 µM (inactive) |  | > 100 µM (inactive) |  | > 100 µM (inactive) | > 100 µM (inactive) | 44.7 µM (inactive) |  |  | 61.4 µM (inactive) | > 100 µM (inactive) | 29.2 µM (inactive) | 71 µM (inactive) | 24.4 µM (inactive) | > 100 µM (inactive)
Cc1ccc(NCc2nnc3c(-c4ccccc4)nc4ccccc4n23)cc1 | 39.3 µM (inactive) | 30.1 µM (inactive) | 23.6 µM (inactive) | 38 µM (inactive) | 24 µM (inactive) | 33.7 µM (inactive) |  | 49.7 µM (inactive) | 43.6 µM (inactive) | 3.36 µM (inactive) | 13 µM (inactive) | 37.4 µM (inactive) | 22.8 µM (inactive) | 50.7 µM (inactive) | 44 µM (inactive) | 21.5 µM (inactive) | 24.5 µM (inactive) | 43.9 µM (inactive) | 24.8 µM (inactive) | 14.4 µM (inactive)
Cc1ccnc2c1C(=O)C1=C(OC(C)(C)CC1O)C2=O (configuration not stated) | 2.87 µM (inactive) | 6.01 µM (inactive) | 2.56 µM (inactive) | 7.38 µM (inactive) | 2.83 µM (inactive) | 3.81 µM (inactive) |  | 2.67 µM (inactive) | 1.79 µM (inactive) | 4.89 µM (inactive) | 2.99 µM (inactive) | 3.36 µM (inactive) | 3.27 µM (inactive) | 2.81 µM (inactive) | 6.08 µM (inactive) | 2.82 µM (inactive) | 2.97 µM (inactive) | 12 µM (inactive) | 2.88 µM (inactive) | 2.41 µM (inactive)
CCOC(=O)/C=C(/C(=O)OCC)n1cc(Cl)c(=O)n(CC(=O)OCC)c1=O | 0.995 µM (active) | 3.94 µM (inactive) | 22.9 µM (inactive) | > 25 µM (inactive) | 4.53 µM (inactive) | > 25 µM (inactive) | 5.13 µM (inactive) | 5.98 µM (inactive) | 7.05 µM (inactive) | 4.81 µM (inactive) | 2.1 µM (inactive) | 5.92 µM (inactive) | > 25 µM (inactive) |  | > 25 µM (inactive) | 4.97 µM (inactive) | 5.71 µM (inactive) | 4.14 µM (inactive) | 4.84 µM (inactive) | 3.85 µM (inactive)
COC(=O)c1cc2c(cc1Cl)Sc1nnc(Nc3ccc(C)cc3)n1S2(=O)=O |  | 10.4 µM (inactive) | 3.72 µM (inactive) | 5.81 µM (inactive) | 10.5 µM (inactive) | 10.9 µM (inactive) |  | 2.19 µM (inactive) | 3.6 µM (inactive) | 1.75 µM (inactive) | 5.13 µM (inactive) | 13.4 µM (inactive) | 5.57 µM (inactive) | 4.9 µM (inactive) | 12.1 µM (inactive) | 8.93 µM (inactive) | 10.6 µM (inactive) | 14.3 µM (inactive) | 2.9 µM (inactive) | 3.46 µM (inactive)
Cn1c(C(O)C2(c3cccnc3)SCCCS2)cc2ccccc21 (configuration not stated) | > 100 µM (inactive) | > 100 µM (inactive) | 59.2 µM (inactive) | > 100 µM (inactive) | > 100 µM (inactive) | 56.9 µM (inactive) | 73.3 µM (inactive) | 36.6 µM (inactive) | > 100 µM (inactive) | 51.1 µM (inactive) | 41.1 µM (inactive) | 44.5 µM (inactive) | 71.4 µM (inactive) |  | > 100 µM (inactive) | > 100 µM (inactive) | > 100 µM (inactive) | > 100 µM (inactive) | > 100 µM (inactive) | 50.5 µM (inactive)
COc1cc(Oc2nc3ccccc3nc2C(=O)O)cc(OC)c1OC | > 100 µM (inactive) | > 100 µM (inactive) |  | > 100 µM (inactive) | > 100 µM (inactive) | > 100 µM (inactive) | > 100 µM (inactive) | > 100 µM (inactive) | > 100 µM (inactive) | > 100 µM (inactive) | > 100 µM (inactive) | > 100 µM (inactive) | > 100 µM (inactive) | > 100 µM (inactive) | > 100 µM (inactive) | > 100 µM (inactive) | > 100 µM (inactive) | > 100 µM (inactive) | > 100 µM (inactive) | > 100 µM (inactive)
CSc1nc(C)c(CCCl)c(Cl)n1 | 42.6 µM (inactive) | > 100 µM (inactive) |  | > 100 µM (inactive) | > 100 µM (inactive) | > 100 µM (inactive) | > 100 µM (inactive) | > 100 µM (inactive) | > 100 µM (inactive) | > 100 µM (inactive) | 31.8 µM (inactive) | 87.7 µM (inactive) |  | > 100 µM (inactive) |  | 36.6 µM (inactive) | > 100 µM (inactive) | > 100 µM (inactive) |  | 
COc1c(O)cc(/C=C/c2cc(O)cc3c2[C@@]2(C(=O)O3)c3c(O)cc(O)cc3OC2c2cccc(O)c2)cc1O (some centres not stated) | 44.2 µM (inactive) | 98.4 µM (inactive) | 48.6 µM (inactive) | 39.3 µM (inactive) | 23.7 µM (inactive) |  |  | 54 µM (inactive) | 62.4 µM (inactive) | 65.9 µM (inactive) | 65.3 µM (inactive) | 23.7 µM (inactive) | 39.1 µM (inactive) | 72.8 µM (inactive) |  | 51.6 µM (inactive) | > 100 µM (inactive) | 95.9 µM (inactive) | 94 µM (inactive) | 28 µM (inactive)
